Laboratory results taken from the supplement of paper PMC12463676, “Small-molecule dissolution of stress granules by redox modulation benefits ALS models” (Nature Chemical Biology, 2025).

Experiments:
potassium arsenate = compound: O=[As]([O-])(O)O.[K+] [potassium arsenate]; assay: thermal stability z-score vs DMSO; higher = more thermally stabilized by treatment; details: HeLa; arsenate concentration 1 mM
Method: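 Cellular thermal proteome profiling in HeLa cells treated with 1 mM arsenate for 1 h (DMSO pretreatment), heated to ten temperatures (37-66.3 °C). Soluble protein was quantified by TMT mass spectrometry relative to DMSO controls; the thermal stability score was transformed to a z-score; mean of n = 3 experiments.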

lipoamide = compound: NC(=O)CCCCC1CCSS1 [lipoamide]; assay: as above; details: HeLa, lipoamide concentration 100 µM
Method: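 Cellular thermal proteome profiling in HeLa cells. Cells were treated with 100 µM lipoamide for 1 h, with or without 1 mM arsenate for a further 1 h, then heated to ten temperatures (37-66.3 °C), and soluble protein was quantified by TMT mass spectrometry relative to 0.1% DMSO controls. The thermal stability score (sum of log2 fold changes minus the abundance score) was transformed to a z-score; mean of n = 3 experiments.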

[1] = arsenate co-treatment: 1 mM arsenate 1 h
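Further: each temperature applied for 3 min, abundance score taken as mean log2 fold change at the two lowest temperatures, z-score obtained by mean subtraction and division by SD.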

Sequence of UniProt P60484 (P60484 whole entry): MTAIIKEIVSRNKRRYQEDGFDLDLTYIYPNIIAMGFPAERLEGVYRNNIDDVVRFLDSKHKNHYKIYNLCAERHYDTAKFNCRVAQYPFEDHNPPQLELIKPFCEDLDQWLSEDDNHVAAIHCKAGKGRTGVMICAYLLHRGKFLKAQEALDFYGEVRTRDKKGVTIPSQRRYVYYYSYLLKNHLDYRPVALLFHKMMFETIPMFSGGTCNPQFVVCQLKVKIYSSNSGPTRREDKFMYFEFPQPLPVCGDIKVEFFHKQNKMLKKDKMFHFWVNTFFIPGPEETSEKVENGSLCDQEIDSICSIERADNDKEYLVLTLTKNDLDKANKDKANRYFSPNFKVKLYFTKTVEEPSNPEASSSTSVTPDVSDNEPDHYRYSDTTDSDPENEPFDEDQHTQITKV
Sequence of UniProt Q9Y6D9 (Q9Y6D9 whole entry): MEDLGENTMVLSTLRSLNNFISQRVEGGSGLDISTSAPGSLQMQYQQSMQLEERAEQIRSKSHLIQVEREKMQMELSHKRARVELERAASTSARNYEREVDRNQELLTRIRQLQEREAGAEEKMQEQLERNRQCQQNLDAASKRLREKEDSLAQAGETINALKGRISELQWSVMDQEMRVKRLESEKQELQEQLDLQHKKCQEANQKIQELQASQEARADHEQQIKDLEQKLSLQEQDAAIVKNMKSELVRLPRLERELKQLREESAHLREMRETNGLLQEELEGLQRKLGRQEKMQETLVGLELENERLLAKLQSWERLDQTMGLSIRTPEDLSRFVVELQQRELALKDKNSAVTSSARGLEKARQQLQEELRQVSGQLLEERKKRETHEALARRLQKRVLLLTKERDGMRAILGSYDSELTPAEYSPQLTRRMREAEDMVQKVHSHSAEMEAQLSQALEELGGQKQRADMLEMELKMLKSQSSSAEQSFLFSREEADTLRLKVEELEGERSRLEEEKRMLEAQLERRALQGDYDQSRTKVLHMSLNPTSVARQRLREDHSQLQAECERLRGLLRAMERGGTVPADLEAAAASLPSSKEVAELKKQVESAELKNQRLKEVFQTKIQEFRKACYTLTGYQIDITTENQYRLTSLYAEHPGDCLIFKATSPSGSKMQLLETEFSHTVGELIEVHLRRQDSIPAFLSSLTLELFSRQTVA
Sequence of UniProt Q9UEE9 (Q9UEE9 whole entry): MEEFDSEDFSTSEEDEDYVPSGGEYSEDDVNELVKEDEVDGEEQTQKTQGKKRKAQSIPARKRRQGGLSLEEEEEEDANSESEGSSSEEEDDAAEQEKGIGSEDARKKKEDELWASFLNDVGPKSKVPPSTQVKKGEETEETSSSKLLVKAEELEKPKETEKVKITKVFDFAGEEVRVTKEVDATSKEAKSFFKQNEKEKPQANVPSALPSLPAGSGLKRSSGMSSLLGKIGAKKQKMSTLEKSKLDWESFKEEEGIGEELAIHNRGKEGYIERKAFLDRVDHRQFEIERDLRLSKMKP
Sequence of UniProt P61966 (P61966 whole entry): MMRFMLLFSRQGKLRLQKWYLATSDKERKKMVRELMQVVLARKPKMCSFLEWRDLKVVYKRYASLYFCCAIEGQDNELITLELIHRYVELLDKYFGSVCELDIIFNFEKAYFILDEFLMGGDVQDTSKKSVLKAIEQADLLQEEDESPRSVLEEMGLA
Sequence of UniProt P22314 (P22314 whole entry): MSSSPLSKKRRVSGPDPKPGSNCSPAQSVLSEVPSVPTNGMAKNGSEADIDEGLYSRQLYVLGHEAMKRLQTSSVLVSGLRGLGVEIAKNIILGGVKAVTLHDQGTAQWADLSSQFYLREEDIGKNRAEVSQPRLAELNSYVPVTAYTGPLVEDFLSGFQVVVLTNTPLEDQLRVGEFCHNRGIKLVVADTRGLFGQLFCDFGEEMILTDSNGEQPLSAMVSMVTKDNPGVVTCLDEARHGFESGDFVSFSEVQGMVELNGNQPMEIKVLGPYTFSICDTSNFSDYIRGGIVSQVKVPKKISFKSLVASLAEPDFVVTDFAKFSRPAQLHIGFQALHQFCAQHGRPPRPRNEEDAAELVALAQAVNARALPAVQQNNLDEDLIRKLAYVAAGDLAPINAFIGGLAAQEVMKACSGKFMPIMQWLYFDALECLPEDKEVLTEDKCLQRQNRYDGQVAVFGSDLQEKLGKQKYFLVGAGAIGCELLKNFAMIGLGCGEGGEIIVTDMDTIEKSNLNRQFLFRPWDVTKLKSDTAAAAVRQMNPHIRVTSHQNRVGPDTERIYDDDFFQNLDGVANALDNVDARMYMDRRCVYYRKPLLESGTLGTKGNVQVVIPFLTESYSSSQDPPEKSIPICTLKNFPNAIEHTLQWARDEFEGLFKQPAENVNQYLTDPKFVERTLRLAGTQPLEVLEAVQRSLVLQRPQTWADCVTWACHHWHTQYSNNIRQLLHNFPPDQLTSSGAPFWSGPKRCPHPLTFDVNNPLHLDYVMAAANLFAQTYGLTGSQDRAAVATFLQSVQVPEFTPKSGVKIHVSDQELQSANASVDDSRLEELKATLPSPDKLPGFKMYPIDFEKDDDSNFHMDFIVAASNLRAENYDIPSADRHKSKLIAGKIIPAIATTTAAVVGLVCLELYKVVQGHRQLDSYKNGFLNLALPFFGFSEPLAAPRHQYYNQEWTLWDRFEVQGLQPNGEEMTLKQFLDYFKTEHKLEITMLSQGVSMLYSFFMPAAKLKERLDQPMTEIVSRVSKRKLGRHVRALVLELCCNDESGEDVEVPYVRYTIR
Sequence of UniProt Q5VTE6 (Q5VTE6 whole entry): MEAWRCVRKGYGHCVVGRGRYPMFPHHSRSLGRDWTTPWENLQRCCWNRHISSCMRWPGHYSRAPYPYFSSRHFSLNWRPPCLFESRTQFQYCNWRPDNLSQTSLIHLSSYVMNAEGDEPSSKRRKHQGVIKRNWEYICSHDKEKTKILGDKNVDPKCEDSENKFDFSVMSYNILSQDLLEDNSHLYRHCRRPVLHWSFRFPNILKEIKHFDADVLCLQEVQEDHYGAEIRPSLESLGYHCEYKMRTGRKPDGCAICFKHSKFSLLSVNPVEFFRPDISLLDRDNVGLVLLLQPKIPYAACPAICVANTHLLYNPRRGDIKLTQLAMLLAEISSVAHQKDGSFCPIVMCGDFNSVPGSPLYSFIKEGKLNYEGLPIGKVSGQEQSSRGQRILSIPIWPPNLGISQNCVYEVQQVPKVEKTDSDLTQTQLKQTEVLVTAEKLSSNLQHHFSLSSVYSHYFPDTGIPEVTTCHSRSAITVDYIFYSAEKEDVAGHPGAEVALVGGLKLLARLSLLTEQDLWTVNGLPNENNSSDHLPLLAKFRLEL
Sequence of UniProt Q96F10 (Q96F10 whole entry): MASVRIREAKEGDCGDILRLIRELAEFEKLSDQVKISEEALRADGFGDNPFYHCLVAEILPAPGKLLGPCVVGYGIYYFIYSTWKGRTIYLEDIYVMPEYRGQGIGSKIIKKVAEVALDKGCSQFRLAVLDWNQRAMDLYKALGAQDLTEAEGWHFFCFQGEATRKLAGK
Sequence of UniProt Q9UNX4 (Q9UNX4 whole entry): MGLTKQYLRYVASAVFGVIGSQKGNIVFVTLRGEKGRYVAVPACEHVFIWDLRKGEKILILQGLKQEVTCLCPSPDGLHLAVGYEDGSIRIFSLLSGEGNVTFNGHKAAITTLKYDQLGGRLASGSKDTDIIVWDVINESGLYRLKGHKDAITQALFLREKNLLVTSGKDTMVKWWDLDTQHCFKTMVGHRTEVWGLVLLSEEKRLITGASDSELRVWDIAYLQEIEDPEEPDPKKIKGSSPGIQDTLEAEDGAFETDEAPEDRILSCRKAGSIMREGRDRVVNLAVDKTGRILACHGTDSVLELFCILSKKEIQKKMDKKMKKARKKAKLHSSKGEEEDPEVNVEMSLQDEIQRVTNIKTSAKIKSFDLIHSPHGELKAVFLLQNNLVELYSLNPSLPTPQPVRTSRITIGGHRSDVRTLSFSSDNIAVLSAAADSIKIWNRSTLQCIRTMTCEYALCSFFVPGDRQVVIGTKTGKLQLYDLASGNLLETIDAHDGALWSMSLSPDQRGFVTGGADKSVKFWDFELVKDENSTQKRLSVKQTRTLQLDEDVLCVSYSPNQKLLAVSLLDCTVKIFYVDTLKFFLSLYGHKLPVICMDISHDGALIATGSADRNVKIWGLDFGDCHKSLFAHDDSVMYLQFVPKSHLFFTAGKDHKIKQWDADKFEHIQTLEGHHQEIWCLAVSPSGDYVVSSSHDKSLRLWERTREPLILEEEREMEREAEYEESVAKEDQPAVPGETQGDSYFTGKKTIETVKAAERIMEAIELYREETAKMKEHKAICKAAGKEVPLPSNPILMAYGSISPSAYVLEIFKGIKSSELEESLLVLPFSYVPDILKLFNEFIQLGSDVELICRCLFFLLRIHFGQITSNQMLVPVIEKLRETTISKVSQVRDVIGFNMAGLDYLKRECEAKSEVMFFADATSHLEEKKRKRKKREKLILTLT
Sequence of UniProt Q8N5G2 (Q8N5G2 whole entry): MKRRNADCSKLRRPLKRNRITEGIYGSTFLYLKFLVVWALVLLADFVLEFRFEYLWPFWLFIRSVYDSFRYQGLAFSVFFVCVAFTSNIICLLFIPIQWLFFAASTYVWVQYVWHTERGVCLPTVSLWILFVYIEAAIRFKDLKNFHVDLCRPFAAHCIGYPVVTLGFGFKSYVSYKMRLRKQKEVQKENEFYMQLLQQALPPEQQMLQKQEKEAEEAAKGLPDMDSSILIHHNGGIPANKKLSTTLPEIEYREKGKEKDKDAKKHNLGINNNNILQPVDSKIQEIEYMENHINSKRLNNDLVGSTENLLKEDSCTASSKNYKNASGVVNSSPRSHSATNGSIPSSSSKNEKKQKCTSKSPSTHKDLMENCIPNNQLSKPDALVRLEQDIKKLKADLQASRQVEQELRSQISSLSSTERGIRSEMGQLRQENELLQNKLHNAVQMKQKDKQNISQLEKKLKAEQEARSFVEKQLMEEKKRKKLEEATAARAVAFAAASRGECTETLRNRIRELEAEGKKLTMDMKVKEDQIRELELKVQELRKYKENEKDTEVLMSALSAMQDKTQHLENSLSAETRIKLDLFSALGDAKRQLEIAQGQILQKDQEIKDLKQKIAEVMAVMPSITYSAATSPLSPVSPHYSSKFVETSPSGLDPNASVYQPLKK

For OSBPL2 (UniProt Q9H1P3), the thermal stability z-score (potassium arsenate) was -0.0657, the thermal stability z-score (lipoamide; [1]) was -0.0428 and the thermal stability z-score (lipoamide; arsenate co-treatment: none) was 0.0817.
MRPL28 (UniProt Q13084) showed a thermal stability z-score (potassium arsenate) of -0.154, a thermal stability z-score (lipoamide; [1]) of -0.527 and a thermal stability z-score (lipoamide; arsenate co-treatment: none) of -0.172.
In the case of AMD1 (UniProt P17707), the thermal stability z-score (potassium arsenate) is reported as -0.105, the thermal stability z-score (lipoamide; [1]) is reported as 0.96 and the thermal stability z-score (lipoamide; arsenate co-treatment: none) is reported as 0.512.
For MAD1L1 (UniProt Q9Y6D9), the thermal stability z-score (potassium arsenate) was 1.62, the thermal stability z-score (lipoamide; [1]) was 2.13 and the thermal stability z-score (lipoamide; arsenate co-treatment: none) was 0.887.
In the case of IRF3 (UniProt Q14653), the thermal stability z-score (potassium arsenate) is reported as 1.13, the thermal stability z-score (lipoamide; [1]) is reported as 0.883 and the thermal stability z-score (lipoamide; arsenate co-treatment: none) is reported as -0.106.
UTP14A (UniProt Q9BVJ6) was tested, and the thermal stability z-score (potassium arsenate) was 2.11, the thermal stability z-score (lipoamide; [1]) was 1.62 and the thermal stability z-score (lipoamide; arsenate co-treatment: none) was 0.823.
In the case of IMPA1 (UniProt P29218), the thermal stability z-score (potassium arsenate) is reported as 0.0144, the thermal stability z-score (lipoamide; [1]) is reported as 0.595 and the thermal stability z-score (lipoamide; arsenate co-treatment: none) is reported as 0.776.
With GPHN (UniProt Q9NQX3) the thermal stability z-score (potassium arsenate) was -0.949, the thermal stability z-score (lipoamide; [1]) was -0.406 and the thermal stability z-score (lipoamide; arsenate co-treatment: none) was -0.149.
In the case of WDR3 (UniProt Q9UNX4), the thermal stability z-score (potassium arsenate) is reported as -0.0987, the thermal stability z-score (lipoamide; [1]) is reported as -0.031 and the thermal stability z-score (lipoamide; arsenate co-treatment: none) is reported as 0.0101.
In the case of FAM107B (UniProt Q9H098), the thermal stability z-score (potassium arsenate) is reported as 0.327, the thermal stability z-score (lipoamide; [1]) is reported as -0.0721 and the thermal stability z-score (lipoamide; arsenate co-treatment: none) is reported as 0.629.
SNX8 (UniProt Q9Y5X2) showed a thermal stability z-score (potassium arsenate) of -0.369, a thermal stability z-score (lipoamide; [1]) of 1.1 and a thermal stability z-score (lipoamide; arsenate co-treatment: none) of -0.149.
Work on C11ORF73 (UniProt Q53FT3) yielded a thermal stability z-score (potassium arsenate) of -0.162, a thermal stability z-score (lipoamide; [1]) of 0.0228 and a thermal stability z-score (lipoamide; arsenate co-treatment: none) of 0.0059.
FBXL17 (UniProt Q9UF56) gave a thermal stability z-score (potassium arsenate) of -0.139, a thermal stability z-score (lipoamide; [1]) of 0.0273 and a thermal stability z-score (lipoamide; arsenate co-treatment: none) of -0.0196.
RNF5 (UniProt Q99942) showed a thermal stability z-score (potassium arsenate) of -0.145, a thermal stability z-score (lipoamide; [1]) of -0.0839 and a thermal stability z-score (lipoamide; arsenate co-treatment: none) of 0.142.
With TMEM57 (UniProt Q8N5G2) the thermal stability z-score (potassium arsenate) was -0.249, the thermal stability z-score (lipoamide; [1]) was 0.13 and the thermal stability z-score (lipoamide; arsenate co-treatment: none) was -0.0957.
HOOK3 (UniProt Q86VS8) was tested, and the thermal stability z-score (potassium arsenate) was -0.272, the thermal stability z-score (lipoamide; [1]) was -0.807 and the thermal stability z-score (lipoamide; arsenate co-treatment: none) was -0.326.
Target CPTP (UniProt Q5TA50) has a thermal stability z-score (potassium arsenate) of 1.5, a thermal stability z-score (lipoamide; [1]) of 2.01 and a thermal stability z-score (lipoamide; arsenate co-treatment: none) of 0.706.
C1GALT1C1 (UniProt Q96EU7) showed a thermal stability z-score (potassium arsenate) of 0.1, a thermal stability z-score (lipoamide; [1]) of -0.776 and a thermal stability z-score (lipoamide; arsenate co-treatment: none) of -0.734.
With ARIH2 (UniProt O95376) the thermal stability z-score (potassium arsenate) was -0.521, the thermal stability z-score (lipoamide; [1]) was 0.203 and the thermal stability z-score (lipoamide; arsenate co-treatment: none) was -0.216.
Work on KIAA0391 (UniProt O15091) yielded a thermal stability z-score (potassium arsenate) of -0.0848, a thermal stability z-score (lipoamide; [1]) of -0.0274 and a thermal stability z-score (lipoamide; arsenate co-treatment: none) of 0.14.
ARHGEF7 (UniProt Q14155) showed a thermal stability z-score (potassium arsenate) of -0.0377, a thermal stability z-score (lipoamide; [1]) of -0.856 and a thermal stability z-score (lipoamide; arsenate co-treatment: none) of -0.54.
SAT2 (UniProt Q96F10) gave a thermal stability z-score (potassium arsenate) of 0.614, a thermal stability z-score (lipoamide; [1]) of 0.538 and a thermal stability z-score (lipoamide; arsenate co-treatment: none) of 0.492.
SKIV2L2 (UniProt P42285) showed a thermal stability z-score (potassium arsenate) of 0.0276, a thermal stability z-score (lipoamide; [1]) of 0.46 and a thermal stability z-score (lipoamide; arsenate co-treatment: none) of 0.334.
Work on POLR3K (UniProt Q9Y2Y1) yielded a thermal stability z-score (potassium arsenate) of -3.08, a thermal stability z-score (lipoamide; [1]) of 0.542 and a thermal stability z-score (lipoamide; arsenate co-treatment: none) of 0.567.
SUB1 (UniProt P53999) gave a thermal stability z-score (potassium arsenate) of 0.0838, a thermal stability z-score (lipoamide; [1]) of 0.206 and a thermal stability z-score (lipoamide; arsenate co-treatment: none) of 0.0783.
RBPJ (UniProt Q06330) gave a thermal stability z-score (potassium arsenate) of -0.676, a thermal stability z-score (lipoamide; [1]) of 0.252 and a thermal stability z-score (lipoamide; arsenate co-treatment: none) of -0.0841.
Target APIP (UniProt Q96GX9) has a thermal stability z-score (potassium arsenate) of -0.0221, a thermal stability z-score (lipoamide; [1]) of 0.597 and a thermal stability z-score (lipoamide; arsenate co-treatment: none) of 0.408.
SPTLC1 (UniProt O15269) gave a thermal stability z-score (potassium arsenate) of 0.833, a thermal stability z-score (lipoamide; [1]) of -0.481 and a thermal stability z-score (lipoamide; arsenate co-treatment: none) of -0.72.
With TTC4 (UniProt O95801) the thermal stability z-score (potassium arsenate) was -0.14, the thermal stability z-score (lipoamide; [1]) was -0.0544 and the thermal stability z-score (lipoamide; arsenate co-treatment: none) was 0.0918.
For GOLGA4 (UniProt Q13439), the thermal stability z-score (potassium arsenate) was 0.774, the thermal stability z-score (lipoamide; [1]) was -0.45 and the thermal stability z-score (lipoamide; arsenate co-treatment: none) was 0.00058.
POLR2B (UniProt P30876) gave a thermal stability z-score (potassium arsenate) of 0.205, a thermal stability z-score (lipoamide; [1]) of 0.77 and a thermal stability z-score (lipoamide; arsenate co-treatment: none) of 0.769.
Work on PARK7 (UniProt Q99497) yielded a thermal stability z-score (potassium arsenate) of 4.42, a thermal stability z-score (lipoamide; [1]) of 4.83 and a thermal stability z-score (lipoamide; arsenate co-treatment: none) of 0.686.
Target ANGEL2 (UniProt Q5VTE6) has a thermal stability z-score (potassium arsenate) of -0.0197, a thermal stability z-score (lipoamide; [1]) of -0.111 and a thermal stability z-score (lipoamide; arsenate co-treatment: none) of -0.19.
Target MRPL44 (UniProt Q9H9J2) has a thermal stability z-score (potassium arsenate) of -0.354, a thermal stability z-score (lipoamide; [1]) of -0.467 and a thermal stability z-score (lipoamide; arsenate co-treatment: none) of -0.447.
In the case of UBA1 (UniProt P22314), the thermal stability z-score (potassium arsenate) is reported as -0.439, the thermal stability z-score (lipoamide; [1]) is reported as -0.526 and the thermal stability z-score (lipoamide; arsenate co-treatment: none) is reported as 0.213.
Target PUM2 (UniProt Q8TB72) has a thermal stability z-score (potassium arsenate) of -0.343, a thermal stability z-score (lipoamide; [1]) of -0.565 and a thermal stability z-score (lipoamide; arsenate co-treatment: none) of 0.382.
SNAPC5 (UniProt O75971) was tested, and the thermal stability z-score (potassium arsenate) was 0.158, the thermal stability z-score (lipoamide; [1]) was -0.0463 and the thermal stability z-score (lipoamide; arsenate co-treatment: none) was 0.216.
KIF3B (UniProt O15066) gave a thermal stability z-score (potassium arsenate) of -0.47, a thermal stability z-score (lipoamide; [1]) of 0.285 and a thermal stability z-score (lipoamide; arsenate co-treatment: none) of -0.318.
For PTEN (UniProt P60484), the thermal stability z-score (potassium arsenate) was -0.185, the thermal stability z-score (lipoamide; [1]) was -0.0735 and the thermal stability z-score (lipoamide; arsenate co-treatment: none) was -0.0591.
Target ACSL4 (UniProt O60488) has a thermal stability z-score (potassium arsenate) of -1.66, a thermal stability z-score (lipoamide; [1]) of 0.208 and a thermal stability z-score (lipoamide; arsenate co-treatment: none) of 0.296.
Target CFDP1 (UniProt Q9UEE9) has a thermal stability z-score (potassium arsenate) of -0.21, a thermal stability z-score (lipoamide; [1]) of 0.254 and a thermal stability z-score (lipoamide; arsenate co-treatment: none) of 0.185.
For CCAR2 (UniProt Q8N163), the thermal stability z-score (potassium arsenate) was 0.358, the thermal stability z-score (lipoamide; [1]) was -0.42 and the thermal stability z-score (lipoamide; arsenate co-treatment: none) was -0.615.
FAM219A (UniProt Q8IW50) gave a thermal stability z-score (potassium arsenate) of -9.1, a thermal stability z-score (lipoamide; [1]) of -1.69 and a thermal stability z-score (lipoamide; arsenate co-treatment: none) of 2.4.
PYGB (UniProt P11216) was tested, and the thermal stability z-score (potassium arsenate) was -1.24, the thermal stability z-score (lipoamide; [1]) was 0.243 and the thermal stability z-score (lipoamide; arsenate co-treatment: none) was 0.0472.
EXOSC3 (UniProt Q9NQT5) gave a thermal stability z-score (potassium arsenate) of -0.385, a thermal stability z-score (lipoamide; [1]) of 0.273 and a thermal stability z-score (lipoamide; arsenate co-treatment: none) of -0.000548.
In the case of EIF2B4 (UniProt Q9UI10), the thermal stability z-score (potassium arsenate) is reported as 0.533, the thermal stability z-score (lipoamide; [1]) is reported as -0.154 and the thermal stability z-score (lipoamide; arsenate co-treatment: none) is reported as 0.0556.
GPCPD1 (UniProt Q9NPB8) was tested, and the thermal stability z-score (potassium arsenate) was 2.8, the thermal stability z-score (lipoamide; [1]) was 0.65 and the thermal stability z-score (lipoamide; arsenate co-treatment: none) was 0.136.
With ARHGAP5 (UniProt Q13017) the thermal stability z-score (potassium arsenate) was -0.265, the thermal stability z-score (lipoamide; [1]) was 0.182 and the thermal stability z-score (lipoamide; arsenate co-treatment: none) was -0.703.
PSMD14 (UniProt O00487) showed a thermal stability z-score (potassium arsenate) of -0.0143, a thermal stability z-score (lipoamide; [1]) of 0.501 and a thermal stability z-score (lipoamide; arsenate co-treatment: none) of 0.524.
ASF1B (UniProt Q9NVP2) was tested, and the thermal stability z-score (potassium arsenate) was -0.169, the thermal stability z-score (lipoamide; [1]) was -0.0916 and the thermal stability z-score (lipoamide; arsenate co-treatment: none) was -0.0291.
PRMT6 (UniProt Q96LA8) showed a thermal stability z-score (potassium arsenate) of 0.483, a thermal stability z-score (lipoamide; [1]) of 0.257 and a thermal stability z-score (lipoamide; arsenate co-treatment: none) of 0.412.
For MRPL54 (UniProt Q6P161), the thermal stability z-score (potassium arsenate) was 0.025, the thermal stability z-score (lipoamide; [1]) was -0.648 and the thermal stability z-score (lipoamide; arsenate co-treatment: none) was 0.074.
PROSER2 (UniProt Q86WR7) gave a thermal stability z-score (potassium arsenate) of -0.644, a thermal stability z-score (lipoamide; [1]) of -0.111 and a thermal stability z-score (lipoamide; arsenate co-treatment: none) of -0.0827.
Target AP1S1 (UniProt P61966) has a thermal stability z-score (potassium arsenate) of 0.802, a thermal stability z-score (lipoamide; [1]) of -0.264 and a thermal stability z-score (lipoamide; arsenate co-treatment: none) of -0.339.
EDF1 (UniProt O60869) was tested, and the thermal stability z-score (potassium arsenate) was 0.199, the thermal stability z-score (lipoamide; [1]) was 0.657 and the thermal stability z-score (lipoamide; arsenate co-treatment: none) was 0.578.
